# Entries after “also recorded” stand apart in the source; their conditions may differ.
# Assays:
# MCF-7-red target cells = experiment: ECM invasion and cytotoxicity assay: NK-92 cells over matrigel layered on MCF-7-red cells (impedance and live cell imaging, xCELLigence RTCA eSight); assay type: cell-based, human; details: for killing of target cells by NK-92 (drop in impedance): MMP inhibitor 2 μM and 10 μM in matrigel and media
# Protocol: An exemplary protocol is described as follows. Briefly, varying volumes of matrigel (50-110 microliters (μL)/well; 6 milligrams (mg)/millilter (mL)) representing increasing distance for invasion is layered over MCF-7 (available from American Type Culture Collection (ATCC)) human breast adenocarcinoma cells stably expressing nuclear-localized red fluorescent protein (MCF-7). NK-92 cells (available from Creative Bioarray, ATCC) are added over the solidified matrigel layer at E:T of 3:1. eLive Green (available from Agilent Technologies, shown in green) is added at 1 μL/mL. A broad spectrum MMP inhibitor (such as GM6001, available from Selleck Chemicals) is used to evaluate the role of matrix metalloproteinases (MMPs).
# The ability of NK-92 cells to invade the matrigel and kill the MCF-7-red target cells was evaluated by concurrent impedance and imaging readouts on an XCELLIGENCE RTCA ESIGHT® imaging and sensing system (available from Agilent Tech., Inc.). Background impedance signal was measured with 50 μL of EMEM media in the wells of E-plate VIEW microplate (available from Agilent Technologies, Cat#0030060101030). MCF-7-red target cells (30,000 in 100 μL) were added to each well. The plate was placed at room temperature for thiry minutes to facilitate an even distribution of cells at the bottom. […] Impedance readings were collected every fifteen minutes, and photos were taken every sixty minutes. Images from four fields of view were acquired in each well in brightfield, red, and green fluorescence channels. […] Percent cytolysis was calculated from normalized cell impedance readings at seventy-two hours using the formula: [(1−(treated/untreated)*100]. […]
# The ability of NK-92 cells to invade the matrigel and kill the MCF7-red target cells was evaluated by concurrent impedance and imaging readouts on an XCELLIGENCE RTCA ESIGHT® imaging and sensing system as outlined in FIG. 6A. Background impedance signal was measured with 50 μL of EMEM media in the wells of E-plate VIEW microplate. […]
# NK-92 invasion = details: transmigration assays; cited from earlier work
# A431 cells [1] = experiment: A431 cell proliferation, normalized cell index over time; assay type: cell-based, human
# Protocol: (§1) Briefly, matrigel (6 mg/ml) was layered (50 μL/ell) over A431-red target tumor cells expressing nuclear-localized mKate2 (red fluorescent protein). After 2 h, epithelial cell adhesion molecule (EpCAM)-CAR-T cells were seeded over the matrigel layer. Tumor cell growth and CAR-T cytotoxicity were determined from real-time impedance and live cell imaging data collected on the XCELLIGENCE RTCA ESIGHT® imaging and sensing system. Pemigatinib (1 μM, 5 μM and 10 μM), an inhibitor of FGFR isoforms 1-3, sold under the brand name Pemazyre was used to evaluate the role of FGFR signaling. Percent cytolysis was calculated from normalized cell impedance and imaging (red fluorescence) data using the formula [(1−(treated/control)*100].
# (§2) The ability of EpCAM-CAR-T cells to invade the matrigel and kill A431-red target cells was evaluated using impedance and imaging readouts on an XCELLIGENCE RTCA ESIGHT® imaging and sensing system. The background impedance signal was measured with 50 μL of c-DMEM media in the wells of E-plate VIEW microplate (Agilent Technologies, Cat#0030060101030). Cell suspension of A 431-red cells was prepared in c-DMEM at desired cell numbers to be aliquot at 100 μL/well. […] Impedance was read every 15 minutes and images were taken every 60 minutes. Images from four fields of view were acquired for each well in brightfield and red fluorescence channel. […]
# A431-red target cells = experiment: ECM invasion and cytotoxicity assay: EpCAM-CAR-T cells over matrigel layered on A431-red cells (impedance and imaging); assay type: cell-based, human; details: for percent cytolysis (CAR-T killing): matrigel
# Protocol: as §1
# as §2, with “μL/well. After the addition of tumor cells, the E-plate was allowed to rest at room temperature for 30 min to facilitate an even distribution at the bottom.” for “μL/well.”
# (§3) The software generates a real-time plot of impedance data with time (X-axis) and Cell Index (CI, Y-axis). […] Normalized Cell Index (NCI(t)) was calculated by dividing the CI at time t (CI(t)) with CI at normalization time point (CI(tnormalization)). […] Percent cytolysis was calculated from NCI (impedance) using the formula [(1−(CAR-T treated/Pemigatinib treated)*100]. Percent cytolysis was calculated from red object counts/well (imaging) using the formula [(1−(CAR-T treated/Pemigatinib treated)*100].
# A431 cells [2] = experiment: EpCAM-CAR-T cytotoxicity assay, A431 cells cultured in DMEM media (no matrigel); assay type: cell-based, human; details: Pemigatinib 5 μM and 10 μM, E:T 3.5, DMEM media
# Protocol: as §1, with “[…] […]” for “Briefly, matrigel (6 mg/ml) was layered (50 μL/ell) over A431-red target tumor cells expressing nuclear-localized mKate2 (red fluorescent protein). After 2 h, epithelial cell adhesion molecule (EpCAM)-CAR-T cells were seeded over the matrigel layer.”
# […] The background impedance signal was measured with 50 μL of c-DMEM media in the wells of E-plate VIEW microplate (Agilent Technologies, Cat#0030060101030). […] Impedance was read every 15 minutes and images were taken every 60 minutes. Images from four fields of view were acquired for each well in brightfield and red fluorescence channel. […]
# as §3
SMILES,target cell killing by GFP-NK92 cells (percent cytolysis from normalized impedance and red fluorescence imaging) (MCF-7-red target cells; 2 μM and 10 μM),killing of target cells by NK-92 (drop in impedance) (MCF-7-red target cells),killing of target cells by NK-92 (drop in impedance) (MCF-7-red target cells; listed as Ilomostat),NK-92 invasion in matrigel in the presence of MMP inhibitor (NK-92 invasion),"proliferation of A431 cells (normalized cell index) (A431 cells [1]; in the presence of matrigel, 1, 5 and 10 μM tested)","proliferation of A431 cells (normalized cell index) (A431 cells [1]; native DMEM media, no matrigel)",percent cytolysis (CAR-T killing) (A431-red target cells; 5 μM Pemigatinib with EpCAM-CAR-T),percent cytolysis (CAR-T killing) (A431-red target cells; 10 μM Pemigatinib with EpCAM-CAR-T),elimination of A431 cells in invasion assays (A431-red target cells; E:T=20:1 and 1 μM Pemigatinib),A431 cytolysis by EpCAM-CAR-T cells in the presence of Pemigatinib (A431 cells [2])
"CNC(=O)[C@H](Cc1c[nH]c2ccccc12)NC(=O)[C@@H](CC(=O)NO)CC(C)C [GM6001, Ilomostat]",delayed and reduced target cell killing,delayed but not abrogated,delayed the killing of target cells,reduced,,,,,,
CCN1C(=O)N(c2c(F)c(OC)cc(OC)c2F)Cc2cnc3[nH]c(CN4CCOCC4)cc3c21 [Pemigatinib],,,,,reduces the proliferation of A431 cells in the presence of matrigel in a concentration-dependent manner; also recorded: reduced the proliferation of A431 cells with increasing concentrations tested,slows the proliferation of A431 cells in native DMEM media in a concentration dependent manner,~20%,−40%,Complete elimination,accelerated
